{"source": "ChEMBL document CHEMBL1125945", "about": "“Tripyl-convergent total synthesis of a homochiral benzoindane-fused prostacyclin analog” (Bioorg Med Chem Lett, 1991)", "organism": "Homo sapiens", "experiment": "Compound was tested for inhibitory activity against collagen induced platelet aggregation", "type": "functional", "data": [{"smiles": "O=C(O)COc1cccc2c1[C@H]1C[C@@H](O)[C@H](C#C[C@@H](O)C3CCCCC3)[C@H]1C2", "values": [{"measurement": "IC50", "value": 2.5, "unit": "µM"}]}]}
